The results in this text go back to patent US20230118517A1, “METHODS OF TREATING MULTIPLE MYELOMA” (Seagen Inc., priority 2020, published 2023).

In test [1] the test system is FcγRIII. Description: FcγRIII signaling ADCC reporter bioassay, Molp-8 target cells. It is filed as cell-based. The following applies: Molp-8 bound with antibody dose titrations, +/- DAPT, CD16A-Jurkat effector cells 6:1. The procedure:
(§1) NCI-H929 or Molp-8 MM target cells were incubated with and without 1 μM DAPT for 24 hrs. […] FcγRIII signaling was determined using a surrogate assay as manufacturer describes (Promega ADCC reporter bioassay cat #G9302). Cells were bound with antibody dose titrations+/−GSI for 30 minutes at 37° C. CD16A-Jurkat effector cells were then added with a 6:1 effector-to-target cell ratio. After an overnight incubation, the assay was developed with Bio-Glo and relative luminescence units (RLU) were measured on an Envision plate reader. […] Enhanced signaling is the first step in the primary mechanism of action of SEA-BCMA. This signaling can translate to increased anti-MM cell lysis through ADCC.

Another test relates to NCI-H929 cells. Description: BCMA expression by flow cytometry after GSI incubation, NCI-H929. The class given is cell-based. The following applies: NCI-H929, 1 μM DAPT for 24 hrs vs untreated. (Flow cytometry measures light scatter and fluorescence of single cells or particles in a stream.)
The subject of another test is Molp-8 cells. Nature of the test: BCMA expression by flow cytometry after GSI incubation, Molp-8. It is filed as cell-based.
Test [2] concerns FcγRIII. Description: FcγRIII signaling ADCC reporter bioassay, NCI-H929 target cells. It is filed as cell-based. The following applies: NCI-H929 bound with antibody dose titrations, +/- DAPT, CD16A-Jurkat effector cells 6:1. The procedure:
as §1

The test system of the next test is NF-κB p65. Description: NF-κB p65 activity ELISA on nuclear extract. The class given is cell-based. The following applies: NCI-H929, serum-starved, 0.2 μM Nirogacestat 16 hrs, +/- 1 μg/ml APRIL. As to the method:
The secondary mechanism of action of SEA-BCMA is to block BCMA proliferative cell signaling. Increased BCMA from GSI treatment is expected to induce increased BCMA signaling. Therefore, the block of this enhanced signaling by SEA-BCMA was tested. BCMA-expressing NCI-H929 cells were serum-starved with and without 0.2 μM Nirogacestat (purchased from SelleckChem) for 16 hrs. Cells were then bound with and without 20 μg/mL SEA-BCMA and incubated with and without 1 μg/ml recombinant human APRIL (R&D Systems) for 20 minutes at 37° C. in the presence or absence of 0.2 μM Nirogacestat. 1 μg of nuclear extract was assayed in duplicate for NF-κB p65 activity by ELISA (TransAM NFκB Chemi p65, Active Motif).

The subject of the next test is U266. Nature of the test: BCMA expression by flow cytometry after Nirogacestat, U266. The class given is cell-based. The following applies: U266, after incubation with Nirogacestat (FIG. 9A).
Test [3] concerns MM1R myeloma target cells. Nature of the test: PBMC-mediated MM1R target cell killing, second experiment (PBMC pretreated 5 days, 0.5 μM pomalidomide). Particulars: PBMC:MM1R 10:1, overnight, with or without 0.5 μM pomalidomide. It is filed as cell-based. The procedure:
(§2) Experiments were performed to test whether SEA-BCMA combines effectively with pomalidomide in vitro by combining PBMC effector cells with MM1R target cells treated with both pomalidomide and SEA-BCMA or antibody controls. The first experiment (FIG. 12A) benchmarks against MM standard of care elotuzumab and nonfucosylated parent BCMA antibody. The second experiment (FIG. 12B) benchmarks against MM standard of care daratumumab. MM1R target cells express 15,000 copies of BCMA, 12,000 copies of CS1 (elotuzumab target), and 36,000 copies of CD38 (daratumumab target).
In the second experiment (FIG. 12B), normal donor PBMCs of the FcγRIII V/F genotype were treated with or without 0.5 μM pomalidomide (APEx Bio, cat #A4211) for 5 days. The resulting PBMCs were then washed and mixed with CFSE (Invitrogen cat #V12883) labeled MM1R myeloma target cells at an effector-to-target cell ratio of 10:1. The mixture was then treated with a dose range of the following antibodies: SEA-BCMA, daratumumab, or non-binding hIgG1k antibody control (Sigma cat #15154) with or without 0.5 μM pomalidomide (APEx Bio, cat #A4211) and incubated overnight. Percentage live MM1R cells were then determined using the viability dye 7-AAD (BD Biosciences, cat #559925) by flow cytometry.

The subject of test [4] is MM1R myeloma target cells. Description: PBMC-mediated MM1R target cell killing, first experiment (48 hrs, 3 μM pomalidomide). It is filed as cell-based. The following applies: PBMC:MM1R 10:1, 48 hrs, with or without 3 μM pomalidomide. As to the method: as §2
In the first experiment (FIG. 12A), normal donor PBMCs of the FcγRIII V/F genotype were mixed with CFSE (Invitrogen cat #V12883) labeled MM1R myeloma target cells at an effector-to-target cell ratio of 10:1. The mixture was treated with a dose range of the following antibodies: SEA-BCMA, elotuzumab, WT-BCMA (fucosylated parent Ab), or non-binding hIgG1k antibody control (Sigma cat #15154) with or without 3 μM pomalidomide (APEx Bio, cat #A4211). After 48 hrs, the % live MM1R cells were then determined using the viability dye 7-AAD (BD Biosciences, cat #559925) by flow cytometry.

The target in test [5] is T1, human BCMA (B-cell maturation antigen) (human, UniProt Q02223 1-184).
T1 construct: Endogenous BCMA on MM1R and NCI-H929 cell lines and on patients' multiple myeloma cells; also called membrane BCMA; cell-surface BCMA
T1 sequence: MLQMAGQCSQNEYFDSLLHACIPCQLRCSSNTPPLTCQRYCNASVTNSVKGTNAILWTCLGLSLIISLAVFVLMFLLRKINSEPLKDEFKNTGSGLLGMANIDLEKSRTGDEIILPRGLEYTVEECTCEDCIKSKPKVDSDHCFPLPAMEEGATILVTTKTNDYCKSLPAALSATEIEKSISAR
Description: flow cytometry on MM cells from bone marrow aspirates.

In test [6] the target is T1, human BCMA (B-cell maturation antigen). Description: in vitro cell binding capacity assay, flow cytometry on MM1R cells.

On to `C[C@H](NC(=O)Cc1cc(F)cc(F)c1)C(=O)N[C@H](C(=O)OC(C)(C)C)c1ccccc1` [DAPT], for which the FcγRIII signaling entry with FcγRIII [1] and with FcγRIII [2] was “increased FcγRIII signaling” throughout. Moreover, the BCMA expression result in the test with NCI-H929 cells is reported as “increased BCMA expression”; in the test on Molp-8 cells (Molp-8, 1 μM DAPT for 24 hrs vs untreated) it was “increased BCMA expression”. As for `CCC[C@H](N[C@H]1CCc2cc(F)cc(F)c2C1)C(=O)Nc1cn(C(C)(C)CNCC(C)(C)C)cn1` [Nirogacestat], in the test on NF-κB p65, the “NF-κB signaling (p65 activity, RLU)” value was “increased NF-κB signaling”. Moreover, the BCMA expression entry was “increased BCMA expression” in the test with U266 and “increased BCMA expression” in the test on Molp-8 cells (Molp-8, Nirogacestat treated vs untreated (FIG. 9A legend)).

For the molecule “Daratumumab: anti-CD38 antibody, MM standard of care [reference compound]”, in test [3], the “MM1R target cell killing (percentage live MM1R cells)” value is recorded as “less activity than SEA-BCMA”. As for “Elotuzumab: MM standard of care antibody; target CS1 [reference compound]”, the “MM1R target cell killing (% live MM1R cells)” value in test [4] was “no impact on cells unless pomalidomide was added”.

B1: APRIL (a proliferation-inducing ligand) (ligand, human, UniProt O75888 105-250, looked up)
chain: AVLTQKQKKQHSVLHLVPINATSKDDSDVTEVMWQPALRRGRGLQAQGYGVRIQDAGVYLLYSQVLFQDVTFTMGQVVSREGQGRQETLFRCIRSMPSHPDRAYNSCYSAGVFHLHQGDILSVIIPRARAKLNLSPHGTFLGFVKL
Take B1: the binding result in test [5] is on record as “binds”.

B2: SEA-BCMA (antibody, human IgG1, kappa, V domains shown)
VH: QVQLVQSGAEVKKPGASVKLSCKASGYTFTDYYIHWVRQAPGQGLEWIGYINPNSGYTNYAQKFQGRATMTADKSINTAYVELSRLRSDDTAVYFCTRYMWERVTGFFDFWGQGTMVTVSS
VL: DIQMTQSPSSVSASVGDRVTITCLASEDISDDLAWYQQKPGKAPKVLVYTTSSLQSGVPSRFSGSGSGTDFTLTISSLQPEDFATYFCQQTYKFPPTFGGGTKVEIKR
notes: also called non-fucosylated monoclonal anti-BCMA antibody
On to B2, for which the binding result in [6] was “binds”.
